Source: patent US20140227335A1 (priority 2012, published 2014)
Entries after “also recorded” stand apart in the source; their conditions may differ. Like-named read-outs stand apart in the source and are kept apart here.

Assays:
HIV-1 96USNG31 = experiment: Anti-HIV efficacy in fresh human PBMC (reverse transcriptase activity); assay type: cell-based; settings: Human immunodeficiency virus 1, PBMC, 168 h; 96USNG31 (clade C, X4/R5); PBMCs, MOI = 0.1, 7 days
HIV-1 (R5 JR-CSF) = experiment: Antiviral effect of PD before, during and after HIV-1 exposure (TZM-bl); assay type: cell-based
HIV-1 92UG029 [1] = experiment: HIV infectivity assay in TZM-bl cells; assay type: cell-based; settings: 92UG029 (clade A, X4); for IC50: Human immunodeficiency virus 1, TZM-bl
Sindbis virus (SINV) = experiment: Sindbis virus plaque assay on BHK-J cells; assay type: cell-based; settings: 300 μM PD
HIV-1 93BR020 = experiment: HIV infectivity assay in TZM-bl cells; assay type: cell-based; settings: 93BR020 (clade F, X4); for IC50: Human immunodeficiency virus 1, TZM-bl
VSV-Gpp [2] = test system: VSV-Gpp
HIV-1 clinical isolates = experiment: Anti-HIV efficacy in fresh human PBMC (all isolates, summary); assay type: cell-based; settings: Human immunodeficiency virus 1, PBMC; eight HIV-1 clinical isolates in PBMCs
HIV-1 92TH006 = experiment: HIV infectivity assay in TZM-bl cells; assay type: cell-based; settings: 92TH006 (clade E, R5); for IC50: Human immunodeficiency virus 1, TZM-bl
HCVcc = HCVcc cell attachment assay; assay type: cell-based, HCV; settings: 300 μM PD, 37° C., 90 min; cell-bound viral RNA by qRT-PCR
VSV-Gpp [3] = assay type: cell-based, HIV lentivirus pseudotyped with VSV-G
SIVmac251 32H = experiment: SIV infectivity assay in TZM-bl cells; assay type: cell-based; settings: Simian immunodeficiency virus
VSV-Gpp [4] = assay type: physicochemical, HIV lentivirus pseudotyped with VSV-G
HIV-1 Jv1083 = experiment: HIV infectivity assay in TZM-bl cells; assay type: cell-based; settings: Jv1083 (clade G, R5); for IC50: Human immunodeficiency virus 1, TZM-bl
HIV-1 93BR021 = experiment: Anti-HIV efficacy in fresh human PBMC (reverse transcriptase activity); assay type: cell-based; settings: Human immunodeficiency virus 1, PBMC, 168 h; 93BR021 (clade B, R5); PBMCs, MOI = 0.1, 7 days
SIVsyk1.2 = experiment: SIV infectivity assay in TZM-bl cells; assay type: cell-based; settings: Simian immunodeficiency virus, first value cell of the line (cells shifted; presumably DMEM)
HIV-20DC310342 = experiment: HIV-2 infectivity assay in TZM-bl cells; assay type: cell-based; settings: Human immunodeficiency virus 2, TZM-bl
HIV-1 92TH599 = experiment: HIV infectivity assay in TZM-bl cells; assay type: cell-based; settings: 92TH599 (clade B, X4); for IC50: Human immunodeficiency virus 1, TZM-bl
HIV-1 (X4 NL4.3) = experiment: HIV-1 sedimentation assay; settings: 10 μM PD, 30 min, 37° C.
[5] = test system: Dengue virus (DenV), serotype 2 New Guinea C strain; experiment: Dengue virus plaque assay on Vero cells; assay type: cell-based; settings: 300 μM PD
HIV-1 92UG029 [6] = experiment: Anti-HIV efficacy in fresh human PBMC (reverse transcriptase activity); assay type: cell-based; settings: Human immunodeficiency virus 1, PBMC, 168 h; 92UG029 (clade A, X4); PBMCs, MOI = 0.1, 7 days
[7] = Cytotoxicity on human cell lines (Cell Titer-Glo); assay type: cell-based
HIV-1 92TH026 = experiment: HIV infectivity assay in TZM-bl cells; assay type: cell-based; settings: 92TH026 (clade B, R5); for IC50: Human immunodeficiency virus 1, TZM-bl
HIV-1 RU132 = experiment: Anti-HIV efficacy in fresh human PBMC (reverse transcriptase activity); assay type: cell-based; settings: Human immunodeficiency virus 1, PBMC, 168 h; RU132 (clade G, R5); PBMCs, MOI = 0.1, 7 days
HIV-1 92RW016 = experiment: as above; assay type: cell-based; settings: Human immunodeficiency virus 1, PBMC, 168 h; 92RW016 (clade A, R5); PBMCs, MOI = 0.1, 7 days

## N=C1Sc2ccccc2C2=NCCCN12 [PD, PD 404,182]
HIV-1 96USNG31
  IC50: 0.14 µM
  IC90: 1.62 µM
HIV-1 (R5 JR-CSF); 10 μM PD, 1, 2, 4 and 8 h post treatment
  antiviral effect, PD added after virus inoculation: loses its antiviral effect
HIV-1 (R5 JR-CSF); 10 μM PD, >16 h prior to virus inoculation
  antiviral effect, extended preincubation of PD with cells: significantly reduces the compound's antiviral efficacy
HIV-1 (R5 JR-CSF); 10 μM PD, time zero
  antiviral effect, PD added together with the virus: significantly inhibits HIV-1 infection
HIV-1 (R5 JR-CSF); 10 μM PD, up to 8 h before the addition of the virus
  antiviral effect, PD added before the virus: retains its full potency
HIV-1 (R5 JR-CSF); cell culture at 37° C.
  time antiviral activity is retained in cell culture prior to the addition of HIV-1: at least 8 hours
HIV-1 92UG029 [1]; PD in DMEM + 10% FBS
  IC90: 4.4 ± 0.2 µM
  IC50: 1.18 µM
HIV-1 92UG029 [1]; PD in cervical fluids
  IC90: 5.3 ± 0.3 µM
  IC50: 1.47 µM
HIV-1 92UG029 [1]; PD in seminal plasma
  IC90: 4.71 ± 0.26 µM
  IC50: 1.33 µM
Sindbis virus (SINV)
  effect on infectivity of SINV: no significant inhibitory effect
HIV-1 93BR020; PD in DMEM + 10% FBS
  IC90: 6.9 ± 0.4 µM
  IC50: 1.4 µM
HIV-1 93BR020; PD in cervical fluids
  IC90: 7.5 ± 0.4 µM
  IC50: 1.9 µM
HIV-1 93BR020; PD in seminal plasma
  IC90: 7.19 ± 0.62 µM
  IC50: 1.61 µM
VSV-Gpp [2]; pH 4
  stability in acidic buffer: highly stable
VSV-Gpp [2]; pH 8
  activity loss: no activity loss
  antiviral activity lost: ~20%
VSV-Gpp [2]; pH 10
  activity loss: ~20%
  antiviral activity lost: ~50%
HIV-1 clinical isolates
  IC50: 0.55 µM
HIV-1 92TH006; PD in DMEM + 10% FBS
  IC50 (DMEM; IC90 per footnote): 6.6 ± 0.4 µM
  IC50: 1.8 µM
HIV-1 92TH006; PD in cervical fluids
  IC50 (Cervical Fluid; IC90 per footnote): 7.6 ± 0.6 µM
  IC50: 2.3 µM
HIV-1 92TH006; PD in seminal plasma
  IC50 (Seminal Plasma; IC90 per footnote): 6.73 ± 0.51 µM
  IC50: 1.96 µM
HCVcc
  attachment of PD-treated HCVcc to cells: binds to cells comparably to control DMSO-treated virus
VSV-Gpp [3]
  VSV-Gpp infectivity remaining: 0.1%
  effect of fetal bovine serum on PD's antiviral activity: no inhibitory effect
  inhibition of VSV-Gpp supernatant infectivity relative to DMSO-treated virus: ~1000 fold
  sensitivity of virus to PD in conditioned medium: significantly less sensitive to inactivation by PD
SIVmac251 32H
  IC50: 1.1 µM
VSV-Gpp [4]; pH 4
  long-term stability (antiviral potency): retains full antiviral potency; also recorded: retains its full potency
VSV-Gpp [4]; pH 7
  long-term stability: stable only at room temperature and 4 °C; also recorded: significantly compromised PD activity after 2 weeks
  stability in HEC gel: not stable
HIV-1 Jv1083; PD in DMEM + 10% FBS
  IC50: 1.1 µM
  IC90: 3.9 ± 0.3 µM
HIV-1 Jv1083; PD in cervical fluids
  IC50: 1.5 µM
  IC90: 4.7 ± 0.1 µM
HIV-1 Jv1083; PD in seminal plasma
  IC50: 1.27 µM
  IC90: 4.22 ± 0.39 µM
HIV-1 93BR021
  IC50: 0.6 µM
  IC90: 4.26 µM
SIVsyk1.2
  IC50: 1.9 µM
HIV-20DC310342
  IC50: 1.8 µM
HIV-1 92TH599; PD in DMEM + 10% FBS
  IC50 (DMEM; IC90 per footnote): 5.9 ± 0.3 µM
  IC50: 1.8 µM
HIV-1 92TH599; PD in cervical fluids
  IC50 (Cervical Fluid; IC90 per footnote): 6.4 ± 0.5 µM
  IC50: 2.2 µM
HIV-1 92TH599; PD in seminal plasma
  IC50 (Seminal Plasma; IC90 per footnote): 6.31 ± 0.52 µM
  IC50: 1.93 µM
HIV-1 (X4 NL4.3)
  sedimentation of HIV capsid and RT in sucrose gradient: viral capsid and RT relocate to the top of the gradient
[5]
  effect on infectivity of DenV: no significant inhibitory effect
HIV-1 92UG029 [6]
  IC50: 1.18 µM
  IC90: 4.67 µM
[7]; HepG2, HCT-8, Huh-7, Huh-7.5, TZM, PC3 and 293T cells, seven different human cell lines
  CC50: > 300 µM
[7]; human, TZM-bl (HeLa) cervical cancer cells
  CC50: > 300 µM
HIV-1 92TH026; PD in DMEM + 10% FBS
  IC90: 2.8 ± 0.2 µM
  IC50: 0.35 µM
HIV-1 92TH026; PD in cervical fluids
  IC90: 3.3 ± 0.1 µM
  IC50: 0.61 µM
HIV-1 92TH026; PD in seminal plasma
  IC90: 2.95 ± 0.16 µM
  IC50: 0.43 µM
HIV-1 RU132
  IC50: 0.2 µM
  IC90: 0.53 µM
HIV-1 92RW016
  IC50: 0.22 µM
  IC90: 0.54 µM
